Laboratory results taken from ChEMBL document CHEMBL3879914, “Inhibitors of central nervous system vasoactive inhibitory peptide receptor 2” (2014).

Key:
[1] = target: T1, Vasoactive intestinal polypeptide receptor 2 (Homo sapiens) (UniProt P41587); assay: (§1) Antagonist activity at recombinant human N-terminal signal peptide/FLAG epitope-tagged VIPR2 expressed in HEK293 cells co-expressing CAMYEL assessed as inhibition of VIP-induced cAMP accumulation at 0.5 uM preincubated for 5 mins with luciferin, coelenterazine H followed by VIP addition measured after 5 mins by BRET assay relative to control; format: functional, cell-based
T1 sequence (whole entry): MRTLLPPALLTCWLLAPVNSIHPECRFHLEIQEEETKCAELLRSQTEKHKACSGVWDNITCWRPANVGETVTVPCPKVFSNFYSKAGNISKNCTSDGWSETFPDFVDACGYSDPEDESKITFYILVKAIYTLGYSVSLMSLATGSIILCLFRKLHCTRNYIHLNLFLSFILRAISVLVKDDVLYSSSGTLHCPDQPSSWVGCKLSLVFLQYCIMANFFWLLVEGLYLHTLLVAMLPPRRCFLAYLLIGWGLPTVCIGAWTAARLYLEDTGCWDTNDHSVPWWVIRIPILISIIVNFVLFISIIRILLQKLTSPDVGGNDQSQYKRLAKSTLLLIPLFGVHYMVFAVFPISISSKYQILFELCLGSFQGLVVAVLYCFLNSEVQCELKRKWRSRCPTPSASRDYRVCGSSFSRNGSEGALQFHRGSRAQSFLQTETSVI

[2] = target: T1, Vasoactive intestinal polypeptide receptor 2 (Homo sapiens); assay: as §1, with “epitope-tagged Rluc8-fused” for “epitope-tagged”, “cells” for “cells co-expressing CAMYEL”, “human mVenus-beta-arrestin2 binding” for “cAMP accumulation”, “1” for “0.5”; format: cell-based
[3] = target: T1, Vasoactive intestinal polypeptide receptor 2 (Homo sapiens); assay: as §1, with “5” for “0.5”; format: functional, cell-based
[4] = target: T1, Vasoactive intestinal polypeptide receptor 2 (Homo sapiens); assay: as §1, with “1” for “0.5”; format: functional, cell-based
[5] = target: T1, Vasoactive intestinal polypeptide receptor 2 (Homo sapiens); assay: as §1, with “epitope-tagged Rluc8-fused” for “epitope-tagged”, “cells” for “cells co-expressing CAMYEL”, “human mVenus-beta-arrestin2 binding” for “cAMP accumulation”, “5” for “0.5”; format: cell-based
[6] = target: T1, Vasoactive intestinal polypeptide receptor 2 (Homo sapiens); assay: as §1, with “epitope-tagged Rluc8-fused” for “epitope-tagged”, “cells” for “cells co-expressing CAMYEL”, “human mVenus-beta-arrestin2 binding” for “cAMP accumulation”; format: cell-based

inhibition [1] [%]	inhibition [2] [%]	inhibition [3] [%]	inhibition [4] [%]	inhibition [5] [%]	inhibition [6] [%]	SMILES
-1.1	4.4	-2.9	-1.3	24.2	1.8 to 10.7	O=C(NCc1ccccc1)[C@H](Cc1ccccc1)C[C@H](O)CNS(=O)(=O)c1ccc([N+](=O)[O-])cc1
14.2	9.2	9.4	14.2	14.9	9.5 to 12.2	O=C([C@@H](Cc1ccccc1)C[C@H](O)CNS(=O)(=O)c1ccc([N+](=O)[O-])cc1)N1CCCCC1
-5	-1.3	-2.8	-2.5	0.4	-1.2 to 13.4	CC1CCC(NC(=O)[C@H](Cc2ccccc2)C[C@H](O)CNS(=O)(=O)c2ccc([N+](=O)[O-])cc2)CC1 (stereo partly specified)
5.7	8.1	16	7.5	9.8	-2.7 to 12.9	O=C(NC1Cc2ccccc2C1)[C@H](Cc1ccccc1)C[C@H](O)CNS(=O)(=O)c1ccc([N+](=O)[O-])cc1
13.3	3.2	22.2	15.6	20	7.1 to 21.1	CC(C)CS(=O)(=O)NC[C@@H](O)C[C@@H](Cc1ccccc1)C(=O)N[C@H]1c2ccccc2C[C@H]1O
-0.7	-0.4	5.1	9.5	-0.8	2.15 to 5.7	CC1CCC(NC(=O)[C@@H](Cc2ccccc2)C[C@H](O)CNS(=O)(=O)c2ccc([N+](=O)[O-])cc2)CC1 (stereo partly specified)
1	5.1	16.7	6.9	-7.5	4.6 to 5.3	CC(C)C(=O)Nc1ccc(S(=O)(=O)NC[C@@H](O)C[C@@H](Cc2ccccc2)C(=O)N[C@H]2c3ccccc3C[C@H]2O)cc1
21.6	5.2	27.4	16.7	11.9	10.2 to 19.6	CC(C)CNc1ccc(S(=O)(=O)NC[C@@H](O)C[C@@H](Cc2ccccc2)C(=O)N[C@H]2c3ccccc3C[C@H]2O)cc1
5.4	7.2	7.3	7.8	-0.2	3.55 to 9.4	C#CCNC(=O)[C@H](Cc1ccccc1)C[C@H](O)CNS(=O)(=O)c1ccc([N+](=O)[O-])cc1
-7.5	-6.1	-0.3	-2.5	1.3	-5.7 to 0.5	O=C(NC1CCCC1)[C@@H](Cc1ccccc1)C[C@H](O)CNS(=O)(=O)c1ccc([N+](=O)[O-])cc1
6.3	4.4	4.4	7.1	6.5	-6.4 to 5.45	O=C(NN1CCCCC1)[C@H](Cc1ccccc1)C[C@H](O)CNS(=O)(=O)c1ccc([N+](=O)[O-])cc1
6.5	27.9	7.4	19.6	20.2	13.8 to 36.8	C[C@H](CC(C)(C)C)NC(=O)[C@@H](Cc1ccccc1)C[C@H](O)CNS(=O)(=O)c1ccc([N+](=O)[O-])cc1
42	83	98.5	63.1	92.9	58.1 to 95.7	O=C(N[C@H]1c2ccccc2C[C@H]1O)[C@H](Cc1ccccc1)C[C@H](O)CNS(=O)(=O)c1ccc(C(F)(F)F)cc1
18.4	35.1	21.3	15.2	33.4	24.2 to 27.4	O=C(N[C@H]1c2ccccc2C[C@H]1O)[C@H](Cc1ccccc1)C[C@H](O)CNS(=O)(=O)c1cccc([N+](=O)[O-])c1
15.2	4.9	19.1	19.1	4.2	-1.2 to 11.7	CC(=O)Nc1ccc(S(=O)(=O)NC[C@@H](O)C[C@@H](Cc2ccccc2)C(=O)N[C@H]2c3ccccc3C[C@H]2O)cc1
-2.9	2.6	24.5	11.3	6.7	4.1 to 15.6	CCCNc1ccc(S(=O)(=O)NC[C@@H](O)C[C@@H](Cc2ccccc2)C(=O)N[C@H]2c3ccccc3C[C@H]2O)cc1
-5.5	-7.8	7.8	-3.4	-8.6	-6.7 to -0.4	O=C(NCCc1cccc(Cl)c1)[C@H](Cc1ccccc1)C[C@H](O)CNS(=O)(=O)c1ccc([N+](=O)[O-])cc1
9.2	3.3	6	12.3	4.7	-0.9 to 5.35	O=C(NN1CCCCC1)[C@@H](Cc1ccccc1)C[C@H](O)CNS(=O)(=O)c1ccc([N+](=O)[O-])cc1
36.5	63.1	98.2	44.2	87.7	31.5 to 93	CC(C)c1ccc(S(=O)(=O)NC[C@@H](O)C[C@@H](Cc2ccccc2)C(=O)N[C@H]2c3ccccc3C[C@H]2O)cc1

The next lines start with the molecule.

SMILES	inhibition [1] [%]	inhibition [2] [%]	inhibition [3] [%]	inhibition [4] [%]	inhibition [5] [%]	inhibition [6] [%]
O=C(N[C@H]1c2ccccc2C[C@H]1O)[C@H](Cc1ccccc1)C[C@H](O)CNS(=O)(=O)c1ccc(C(=O)N2CCOCC2)cc1	-1.4	1.8	25.5	0.1	-5.4	4.1 to 10.1
O=C(NC[C@@H](O)C[C@@H](Cc1ccccc1)C(=O)N[C@H]1c2ccccc2C[C@H]1O)c1cccnc1	15.2	-5.7	16.4	13.5	-6.3	-6.8 to 5.05
C=Cc1ccc(C(=O)NC[C@@H](O)C[C@@H](Cc2ccccc2)C(=O)N[C@H]2c3ccccc3C[C@H]2O)cc1	16.1	47.5	23.8	16.5	1.8	2.3 to 12.8
O=C(CCN1C(=O)C=CC1=O)NC[C@@H](O)C[C@@H](Cc1ccccc1)C(=O)N[C@H]1c2ccccc2C[C@H]1O	15.5	15.2	18.6	19	-3.1	7.75 to 9.9
CC(=O)Nc1ccc(S(=O)(=O)NC[C@H](C[C@@H](Cc2ccccc2)C(=O)N[C@H]2c3ccccc3C[C@H]2O)OC(C)=O)cc1	-4.3	-1.8	3	32.3	10.5	-9.8 to 6.75
COc1cc(C(=O)NC[C@@H](O)C[C@@H](Cc2ccccc2)C(=O)N[C@H]2c3ccccc3C[C@H]2O)cc(OC)c1OC	15.6	37.2	9.3	20	18	13.7 to 29.6
O=C(NC1CCCC1)c1ccc(S(=O)(=O)NC[C@@H](O)C[C@@H](Cc2ccccc2)C(=O)N[C@H]2c3ccccc3C[C@H]2O)cc1	15.2	0.5	31.8	19.6	0.1	3.9 to 15.9
O=C(CCCCl)NC[C@@H](O)C[C@@H](Cc1ccccc1)C(=O)N[C@H]1c2ccccc2C[C@H]1O	16.4	24.3	15.9	18.2	21.1	18.5 to 19.2
CCCCCNc1ccc(S(=O)(=O)NC[C@@H](O)C[C@@H](Cc2ccccc2)C(=O)N[C@H]2c3ccccc3C[C@H]2O)cc1	10.8	2.3	19.1	19.1	11.3	2.8 to 15.2
O=C(NC[C@@H](O)C[C@@H](Cc1ccccc1)C(=O)N[C@H]1c2ccccc2C[C@H]1O)C1CC1	21	37	24	21.1	29.1	-3.8 to 26.6
NC[C@@H](O)C[C@@H](Cc1ccccc1)C(=O)N[C@H]1c2ccccc2C[C@H]1O	11.8	1.4	7.4 to 15.2	7.4 to 15.9	19.7	3.7 to 17.4
CC(C)c1cc(C(C)C)c(S(=O)(=O)NC[C@@H](O)C[C@@H](Cc2ccccc2)C(=O)N[C@H]2c3ccccc3C[C@H]2O)c(C(C)C)c1	19.5	30.9	90	18.6	8.3	29.7 to 49.1
